Measurements reported in patent US12433877B2, “Sustained release drug delivery systems and related methods” (Durect Corporation, priority 2021, dated 2025).
Values joined by “and” are separate entries in the source; they are usually repeats but may differ in a detail not shown here. Equal entries are not always repeated.

Assays:
[1] = Example 9: 2,6-dimethylaniline standard in different color glassware, electrochemical detection; format: physicochemical; settings: for Observed Concentration of Standard: prepared at 3 ng/mL
Method: For analysis, an aliquot of formulation was diluted 250 times with an aqueous buffer/methanol/acetonitrile diluent. After solubilization of the sample, a small aliquot is transferred into an HPLC vial for analysis using an electrochemical detector.
A series of experiments was conducted examining the effects of amber and red colored glassware on the stability of the 2,6-dimethylaniniline reference standard, using electrochemical detection, at a concentration of 3 ng/mL in an aqueous buffer/methanol solution.
In Experiment 1, the 2,6-dimethylaniline was prepared at a concentration of 3 ng/mL in a clear, colorless glass 100 mL volumetric flask. Aliquots were transferred into clear HPLC glass vials, and assayed against external standards. The 3 injections of the 2,6-dimethylaniline were consistently near 3 ng/mL.
In Experiment 2, the 2,6-dimethylaniline solution at 3 ng/mL prepared in a clear, colorless glass 100 mL volumetric flask was transferred to amber HPLC vials.
An aliquot was transferred into a clear HPLC glass vial, and assayed against external standards. The sample injection had the same 2,6-dimethylaniline concentration value as that in Experiment 1.
In Experiment 4, the 2,6-dimethylaniline solution at 3 ng/mL prepared in the red colored glass 100 mL volumetric flask coated with RAY-SORB® was transferred to an amber HPLC vial.

pregnant rabbits = experiment: Embryo-fetal development study, subcutaneous, rabbits; format: in vivo; settings: pregnant rabbits, subcutaneous; MRHD 660 mg
Method: (§1) There are no studies conducted with Formulation A in pregnant women. […] Based on animal data, advise pregnant women of the potential risks to a fetus. [see Data]
Bupivacaine hydrochloride was administered subcutaneously to rats at doses of 4.4, 13.3, & 40 mg/kg and to rabbits at doses of 1.3, 5.8, & 22.2 mg/kg during the period of organogenesis (implantation to closure of the hard palate). The high doses are approximately 0.6 times the daily maximum recommended human dose (MRHD) of 660 mg/day on a mg/m^2 body surface area (BSA) basis.

[2] = test system: patients undergoing elective arthroscopic shoulder surgery; experiment: Example 1 / Study 1: pain intensity and opioid rescue after arthroscopic shoulder surgery; format: in vivo, human; settings: 0-72 hours after surgery; ITT
clinical [3] = settings: human, in vivo
Description: Both bupivacaine and benzyl alcohol have been reported to be excreted in human milk.
Bupivacaine appears to cross the placenta by passive diffusion. The rate and degree of diffusion is governed by (1) the degree of plasma protein binding, (2) the degree of ionization, and (3) the degree of lipid solubility. Fetal/maternal ratios of local anesthetics appear to be inversely related to the degree of plasma protein binding, because only the free, unbound drug is available for placental transfer. Bupivacaine with a high protein binding capacity (95%) has a low fetal/maternal ratio (0.2 to 0.4). The extent of placental transfer is also determined by the degree of ionization and lipid solubility of the drug. Lipid soluble, non-ionized drugs such as bupivacaine readily enter the fetal blood from the maternal circulation.
The kidney is the main excretory organ for most local anesthetics and their metabolites. Urinary excretion is affected by urinary perfusion and factors affecting urinary pH. Only 6% of bupivacaine is excreted unchanged in the urine.

clinical [4] = settings: human, in vivo; remark: listed apart in the source
Method: Additionally, alpha 1 acid glycoprotein (AAG) plasma concentrations were measured in these two groups for correlation with free bupivacaine concentrations.
Using non-compartmental methods the following PK parameters were calculated from the plasma concentrations of each compound: area under the plasma concentration vs. time curve until the last measured concentration (AUCt), area under the plasma concentration vs. time curve extrapolated until infinity (AUCinf), the maximum concentration (Cmax), the time of its occurrence (tmax) and the apparent terminal elimination half-life (t1/2). […] The average […] of bupivacaine was approximately 5.2%; free bupivacaine plasma concentrations generally paralleled those of total bupivacaine. There was a large interindividual variability of Cmax of both total and free bupivacaine. […] Note: Table 1.5 presents Geometric mean, ±68th percentile for Cmax rather than absolute min,max.

[5] = test system: bacterial reverse mutation; experiment: In vitro bacterial reverse mutation assay (Ames assay); format: cell-based
Description: (§2) Bupivacaine was negative in the in vitro bacterial reverse mutation assay (Ames assay), the in vitro chromosomal aberration assay (human peripheral blood lymphocytes, and the in vivo rat micronucleus assay.

rats = experiment: Rat pre- and post-natal development study; format: in vivo; settings: rat; MRHD 660 mg
Method: as §1
The high dose is approximately 0.6 times the daily MRHD of 660 mg/day on a BSA basis.

[6] = test system: human peripheral blood lymphocytes; experiment: In vitro chromosomal aberration assay; format: cell-based
Description: as §2

[7] = cited from earlier work
rat micronucleus = experiment: In vivo rat micronucleus assay
Description: as §2

[8] = Example 14: peroxide content of SAIB / benzyl alcohol versus bupivacaine N-oxide; format: physicochemical
Method: Placebo compositions were composed of 75% w/w sucrose acetate isobutyrate (SAIB), and 25% w/w benzyl alcohol. Bupivacaine N-oxide in the sustained release bupivacaine compositions can be formed by an oxidative reaction between bupivacaine and peroxides.
The peroxide content for several lots of sucrose acetate isobutyrate were determined by potentiometric titration involving iodometric titration. The bupivacaine N-oxide levels in samples of Formulation A were determined using HPLC with UV detection.
All of the benzyl alcohol compositions had peroxide values of less than […]. The peroxide value can be converted to peroxide content, expressed as hydrogen peroxide, by multiplying PV by 17. […] The maximum contribution to peroxide content from benzyl alcohol is 85 ppm divided by 3, or 28 ppm.

[9] = Example 11: metal content by ICP-MS; format: physicochemical
Method: Sucrose acetate isobutyrate was tested for metal content as follows. The sample was prepared with a 0.1 g weighed portion mixed with 2 mL nitric acid and 0.5 mL hydrochloric acid for 1 hour on a block digestor set at 110° C. After cooling, 0.5 mL of 30% hydrogen peroxide was added, and the digestion resumed for 30 minutes (the material appeared dissolved). After cooling, internal standard solution was added and dilution with purified water to 20 g produced a solution for ICP-MS analysis. The results are shown below:
Formulation A was compounded using steel compounding tanks. Silicone tubing was used to transfer Formulation A. Formulation A was filled into glass vials, which were then sealed with fluorocarbon-coated stoppers.
Formulation A was tested for metal content as follows. The sample was prepared with a 0.2 g weighed portion mixed with 2 mL nitric acid, 1 mL hydrochloric acid, and 1 mL hydrofluoric acid, then digested in a closed-vessel microwave system (the material appeared dissolved). After cooling, internal standard solution was added and dilution with purified water to 50 g produced a solution for ICP-MS analysis.

[10] = Example 16: in vitro cumulative release of bupivacaine (USP Apparatus II); format: physicochemical; settings: oven at 225° C. for 4 hours
Description: To compare dissolution profiles, formulations having 12% w/w bupivacaine but differing ratios of sucrose acetate isobutyrate (SAIB)/solvent were made and tested as described in the below Methods and Materials. Table 16.1 is a summary of the compositions of the formulations tested.
To compare dissolution profiles, formulations having 12% w/w bupivacaine but differing ratios of sucrose acetate isobutyrate (SAIB)/solvent were made and tested as described below. Table 16.3 is a summary of the compositions of the formulations tested.
To compare dissolution profiles, a control formulation and a heat-stressed SAIB formulation were made and tested as described the below Methods and Materials. Both the control and heat-stressed SAIB formulations nominally consisted of 12% w/w bupivacaine, 22% w/w benzyl alcohol, and 66% w/w SAIB.
The bupivacaine formulations, other than the heat-stressed formulation, were prepared by dissolving appropriate amounts of bupivacaine in appropriate amounts of benzyl alcohol (BA), adding an appropriate amount of sucrose acetate isobutyrate (SAIB), and stirring not less than 45 minutes at about 35° C. For the heat-stressed SAIB formulation, the same process was followed except the SAIB was pre-heated in an oven at 225° C. for 4 hours before use. […]
Dissolution was measured using a USP Apparatus II. […]

Molecule: Cc1cccc(C)c1N [2,6-dimethylaniline]
- 2,6-dimethylaniline concentration found ([1]; Experiment 1: clear flask, clear HPLC vials, 3 ng/mL prepared): ~3 ng/mL
- 2,6-dimethylaniline concentration relative to Experiment 1 ([1]; Experiment 3: red RAY-SORB flask, clear HPLC vial): same
- 2,6-dimethylaniline content relative to Experiments 1 and 3 ([1]; Experiment 4: red RAY-SORB flask, amber HPLC vial): approximately 5 times higher

Molecule: CCCCN1CCCCC1C(=O)Nc1c(C)cccc1C (centres unmarked) [Bupivacaine, 1-butyl-N-(2,6-dimethylphenyl)-2-piperidinecarboxamide]
- Dose with embryo-fetal lethality (pregnant rabbits): 0.6 times the maximum recommended human dose
- Total IV morphine equivalent dose of opioid rescue medication, median [2]: 8 mg
- Cmax (clinical [3]): 2850 ng/mL
- fraction unbound (clinical [4]): ~0.052
- Bacterial reverse mutation assay (Ames assay) result [5]: negative
- Dose with decreased pup survival (rats): 0.6 times the maximum recommended human dose
- Chromosomal aberration assay result [6]: negative
- Excreted unchanged in the urine ([7]; human, in vivo): 6%
- Protein binding capacity ([7]; plasma): 95%
- Rat micronucleus assay result (rat micronucleus): negative

Molecule: sucrose acetate isobutyrate [SAIB]
- Peroxide content in SAIB corresponding to 0.8% bupivacaine N-oxide ([8]; linear regression, FIG. 14): 232.5 ppm
- Peroxide in SAIB corresponding to the 1.0% specification limit for bupivacaine N-oxide ([8]; linear regression, FIG. 14): 296.4 ppm
- Gold ([9]; Detection Limit 0.02): 0.4 ppm
- Tin ([9]; Detection Limit 0.04): 0.0 ppm
- Iron ([9]; Detection Limit 1): 2 ppm
- SAIB remaining after pre-heating [10]: 98%

Molecule: Cc1cccc(C)c1N [2,6-Dimethlylaniline Standard]
- Observed Concentration of Standard ([1]; Experiment 1, Clear volumetric flask, Clear HPLC vial): 3.0 ng/mL and 3.1 ng/mL
- Observed Concentration of Standard ([1]; Experiment 2, Clear volumetric flask, Amber HPLC vial): 24.5 ng/mL and 28.4 ng/mL and 34.6 ng/mL and 38.1 ng/mL
- Observed Concentration of Standard ([1]; Experiment 3, Red volumetric flask, Clear HPLC vial): 3.0 ng/mL
- Observed Concentration of Standard ([1]; Experiment 4, Red volumetric flask, Amber HPLC vial): 14.9 ng/mL

Molecule: OCc1ccccc1 [benzyl alcohol]
- Peroxide content, expressed as hydrogen peroxide ([8]; PV multiplied by 17): < 8.5 ppm
- Peroxide value (PV) ([8]; all lots): less than 0.5
- Effective peroxide contribution to formation of bupivacaine N-oxide ([8]; divided by 3): < 2.8 ppm
